Biological target: human DGKζ (Homo sapiens (Human), UniProt Q13574)
Test: Human DGKζ kinase activity inhibition assay (ADP-Glo)
Assay type: biochemical
Settings: in vitro human DGKζ kinase activity inhibition assay; read-out: IC50
Outline: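 ADP-Glo luminescence, reflecting ADP produced, served as the readout of activity. Full-length human DGKζ, FLAG-tagged at the C-terminus and insect-cell expressed, was used; lipid substrate mix was sonicated with octyl-β-D-glucopyranoside in 50 mM MOPS pH 7.4.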

Sequence of human DGKζ (Q13574 other isoform, or with tags, fused parts or gaps): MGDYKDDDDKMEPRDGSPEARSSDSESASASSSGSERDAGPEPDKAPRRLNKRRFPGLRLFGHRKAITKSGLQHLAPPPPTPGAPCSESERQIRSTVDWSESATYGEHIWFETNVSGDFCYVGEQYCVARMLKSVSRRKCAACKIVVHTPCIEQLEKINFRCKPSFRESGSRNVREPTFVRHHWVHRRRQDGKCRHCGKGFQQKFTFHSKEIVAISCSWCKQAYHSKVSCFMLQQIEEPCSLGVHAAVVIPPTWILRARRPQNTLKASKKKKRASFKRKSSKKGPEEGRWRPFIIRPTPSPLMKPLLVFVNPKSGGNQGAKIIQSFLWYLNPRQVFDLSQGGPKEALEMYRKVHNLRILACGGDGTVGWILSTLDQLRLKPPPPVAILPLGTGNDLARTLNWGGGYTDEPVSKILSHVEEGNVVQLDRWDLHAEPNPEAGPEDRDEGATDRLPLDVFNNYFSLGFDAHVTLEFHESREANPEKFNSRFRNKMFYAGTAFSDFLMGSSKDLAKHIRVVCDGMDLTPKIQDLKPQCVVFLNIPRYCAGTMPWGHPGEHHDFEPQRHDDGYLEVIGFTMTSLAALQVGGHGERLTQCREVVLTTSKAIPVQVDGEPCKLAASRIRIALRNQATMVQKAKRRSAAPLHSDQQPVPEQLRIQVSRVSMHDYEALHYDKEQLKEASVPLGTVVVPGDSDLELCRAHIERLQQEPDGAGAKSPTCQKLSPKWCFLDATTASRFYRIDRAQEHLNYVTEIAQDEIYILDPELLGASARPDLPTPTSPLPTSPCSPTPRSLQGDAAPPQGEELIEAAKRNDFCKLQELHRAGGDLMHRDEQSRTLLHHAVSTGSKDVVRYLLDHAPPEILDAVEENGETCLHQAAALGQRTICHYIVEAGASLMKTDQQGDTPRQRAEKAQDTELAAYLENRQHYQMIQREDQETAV

Structure (SMILES)	IC50 [nM]
CCOC(=O)C(C)(C)Oc1ccc(C(=O)c2sc(N(c3ccc(F)cc3)C(C)C(N)=O)nc2N)cc1 (racemic) [Example 259, Rac-Ethyl 2-[4-[4-amino-2-(N-(2-amino-1-methyl-2-oxo-ethyl)-4-fluoro-anilino)thiazole-5-carbonyl]phenoxy]-2-methyl-propanoate]	19
CC(C(N)=O)N(c1ccc(F)cc1)c1nc(N)c(C(=O)c2ccc(C(=O)NC3CCCCC3)cc2)s1 (racemic) [Example 260, rac-4-[4-amino-2-(N-(2-amino-1-methyl-2-oxo-ethyl)-4-fluoro-anilino)thiazole-5-carbonyl]-N-cyclohexyl-benzamide]	29
CC(C)NC(=O)c1ccc(C(=O)c2sc(N(c3ccc(F)cc3)C(C)C(N)=O)nc2N)cc1 (racemic) [Example 261, rac-4-[4-amino-2-(N-(2-amino-1-methyl-2-oxo-ethyl)-4-fluoro-anilino)thiazole-5-carbonyl]-N-isopropyl-benzamide]	90
CC(C(N)=O)N(c1ccc(F)cc1)c1nc(N)c(C(=O)c2ccc(C(=O)NCc3ccccc3)cc2)s1 (racemic) [Example 262, rac-4-[4-amino-2-(N-(2-amino-1-methyl-2-oxo-ethyl)-4-fluoro-anilino)thiazole-5-carbonyl]-N-benzyl-benzamide]	6
COCCNC(=O)c1ccc(C(=O)c2sc(N(c3ccc(F)cc3)C(C)C(N)=O)nc2N)cc1 (racemic) [Example 264, rac-4-[4-amino-2-(N-(2-amino-1-methyl-2-oxo-ethyl)-4-fluoro-anilino)thiazole-5-carbonyl]-N-(2-methoxyethyl)benzamide]	376
CC(C(N)=O)N(c1ccc(F)cc1)c1nc(N)c(C(=O)c2ccc(C(=O)NC3CC3)cc2)s1 (racemic) [Example 266, rac-4-[4-amino-2-(N-(2-amino-1-methyl-2-oxo-ethyl)-4-fluoro-anilino)thiazole-5-carbonyl]-N-cyclopropyl-benzamide]	287
CC(C(N)=O)N(c1ccc(F)cc1)c1nc(N)c(C(=O)c2ccc(C(=O)NC3CCCC3)cc2)s1 (racemic) [Example 267, rac-4-[4-amino-2-(N-(2-amino-1-methyl-2-oxo-ethyl)-4-fluoro-anilino)thiazole-5-carbonyl]-N-cyclopentyi-benzamide]	63
CC(C(N)=O)N(c1ccc(Cl)c(F)c1)c1nc(N)c(C(=O)c2ccc(C(=O)NCCOc3ccccc3)cc2)s1 (racemic) [Example 268, rac-4-[4-amino-2-(N-(2-amino-1-methyl-2-oxo-ethyl)-4-chloro-3-fluoro-anilino)thiazole-5-carbonyl]-N-(2-phenoxyethyl)benzamide]	3
CC(C(N)=O)N(c1ccc(Cl)c(F)c1)c1nc(N)c(C(=O)c2ccc(C(=O)NCCOC(F)(F)F)cc2)s1 (racemic) [Example 269, rac-4-[4-amino-2-(N-(2-amino-1-methyl-2-oxo-ethyl)-4-chloro-3-fluoro-anilino)thiazole-5-carbonyl]-N-[2-(trifluoromethoxy)ethyl]benzamide]	12
CC(C(N)=O)N(c1ccc(Cl)c(F)c1)c1nc(N)c(C(=O)c2ccc(C(=O)NCCOC(F)F)cc2)s1 (racemic) [Example 270, rac-4-[4-amino-2-(N-(2-amino-1-methyl-2-oxo-ethyl)-4-chloro-3-fluoro-anilino)thiazole-5-carbonyl]-N-2-(difluoromethoxy)ethyl]benzamide]	13
CC(C(N)=O)N(c1ccc(Cl)c(F)c1)c1nc(N)c(C(=O)c2ccc(C(=O)NCCOC(C)(C)C)cc2)s1 (racemic) [Example 271, rac-4-[4-amino-2-(N-(2-amino-1-methyl-2-oxo-ethyl)-4-chloro-3-fluoro-anilino)thiazole-5-carbonyl]-N-(2-tert-butoxyethyl)benzamide]	18
COCCNC(=O)c1ccc(C(=O)c2sc(N(c3ccc(Cl)c(F)c3)C(C)C(N)=O)nc2N)cc1 (racemic) [Example 272, rac-4-[4-amino-2-(N-(2-amino-1-methyl-2-oxo-ethyl)-4-chloro-3-fluoro-anilino)thiazole-5-carbonyl]-N-(2-methoxyethyl)benzamide]	39
CC(C(N)=O)N(c1ccc(F)cc1)c1nc(N)c(C(=O)c2ccc(OC(C)(C)C(=O)NCc3ccc(Cl)cc3)cc2)s1 (racemic) [Example 273, rac-2-[4-[4-amino-2-(N-(2-amino-1-methyl-2-oxo-ethyl)-4-fluoro-anilino)thiazole-5-carbonyl]phenoxy]-N-[(4-chlorophenyl)methyl]-2-methyl-propanamide]	20
CC(C(N)=O)N(c1ccc(F)cc1)c1nc(N)c(C(=O)c2ccc(Br)nc2)s1 (racemic) [Example 274, rac-2-(N-[4-amino-5-(6-bromopyridine-3-carbonyl)thiazol-2-yl]-4-fluoro-anilino)propanamide]	107

Other lines, results leading:

IC50 [nM]	Structure (SMILES)
29	CC(C(N)=O)N(c1ccc(F)cc1)c1nc(N)c(C(=O)c2ccc(N3CCC(C(F)(F)F)CC3)nc2)s1 (racemic) [Example 275, rac-2-(N-[4-amino-5-[6-[4-(trifluoromethyl)-1-piperidyl]pyridine-3-carbonyl]thiazol-2-yl]-4-fluoro-anilino)propanamide]
29	CC1CCN(c2ccc(C(=O)c3sc(N(c4ccc(F)cc4)C(C)C(N)=O)nc3N)cn2)CC1 (racemic) [Example 276, rac-2-(N-[4-amino-5-[6-(4-methyl-1-piperidyl)pyridine-3-carbonyl]thiazol-2-yl]-4-fluoro-anilino)propanamide]
494	CC(C(N)=O)N(c1ccc(F)cc1)c1nc(N)c(C(=O)c2ccc(N3CCC(C4COC4)CC3)nc2)s1 (racemic) [Example 277, rac-2-(N-[4-amino-5-[6-[4-(oxetan-3-yl)-1-piperidyl]pyridine-3-carbonyl]thiazol-2-yl]-4-fluoro-anilino)propanamide]
230	CC(C(N)=O)N(c1ccc(F)cc1)c1nc(N)c(C(=O)c2ccc(N(C)C)nc2)s1 (racemic) [Example 278, rac-2-(N-[4-amino-5-[6-(dimethylamino)pyridine-3-carbonyl]thiazol-2-yl]-4-fluoro-anilino)propanamide]
48	CC(C(N)=O)N(c1ccc(F)cc1)c1nc(N)c(C(=O)c2ccc(N3CCC(C)(C)CC3)nc2)s1 (racemic) [Example 279, rac-2-(N-[4-amino-5-[6-(4,4-dimethyl-1-piperidyl)pyridine-3-carbonyl]thiazol-2-yl]-4-fluoro-anilino)propanamide]
43	CC(C(N)=O)N(c1ccc(F)cc1)c1nc(N)c(C(=O)c2ccc(N3CC4CCC(C4)C3)nc2)s1 (racemic) [Example 280, rac-2-(N-[4-amino-5-[6-(3-azabicyclo[3.2.1]octan-3-yl)pyridine-3-carbonyl]thiazol-2-yl]-4-fluoro-anilino)propanamide]
98	CC1CC(C)CN(c2ccc(C(=O)c3sc(N(c4ccc(F)cc4)C(C)C(N)=O)nc3N)cn2)C1 (racemic) [Example 281, rac-2-(N-[4-amino-5-[6-(3,5-dimethyl-1-piperidyl)pyridine-3-carbonyl]thiazol-2-yl]-4-fluoro-anilino)propanamide]
53	CC(C(N)=O)N(c1ccc(F)cc1)c1nc(N)c(C(=O)c2ccc(N3CC4CC4C3)nc2)s1 (racemic) [Example 282, rac-2-(N-[4-amino-5-[6-(3-azabicyclo[3.1.0]hexan-3-yl)pyridine-3-carbonyl]thiazol-2-yl]-4-fluoro-anilino)propanamide]
